Data on 17 compounds can be found in patent US6706740B2, “Fungicidal heterocyclic aromatic amides and their compositions, methods of use and preparation” (Dow AgroSciences LLC, priority 1999, dated 2004).

For orientation: inhibition means the share of the control response that was lost under treatment.

Holding throughout (format): cell-based
In assay [1] the test system is Phytophthora infestans (PHYTIN). Kind of assay: microbe, parasite or virus in culture. Particulars: Phytophthora infestans, read-out: PHYTIN in vitro Growth Inhibition.
Assay [2] relates to Magnaporthe grisea (Pyricularia oryzae—PYRIOR). Kind of assay: microbe, parasite or virus in culture. Conditions: Pyricularia oryzae, read-out: PYRIOR in vitro Growth Inhibition.
The test system of assay [3] is Stagonospora nodorum (Leptosphaeria nodorum—LEPTNO). The assay is described as follows: In vitro fungal growth inhibition, Stagonospora nodorum (LEPTNO). Particulars: Leptosphaeria; 25 ppm in growth medium; read-out: LEPTNO in vitro Growth Inhibition.
In assay [4] the test system is Rhizoctonia solani (RHIZSO). Kind of assay: microbe, parasite or virus in culture. Conditions: Rhizoctonia solani, read-out: RHIZSO in vitro Growth Inhibition.
The subject of assay [5] is Mycosphaerella graminicola (Septoria tritici—SEPTTR). Kind of assay: In vitro fungal growth inhibition, Mycosphaerella graminicola (SEPTTR). Particulars: Zymoseptoria tritici; 25 ppm in growth medium; read-out: SEPTTR in vitro Growth Inhibition.
In assay [6] the test system is Ustilago maydis (USTIMA). Kind of assay: microbe, parasite or virus in culture. Particulars: Mycosarcoma maydis, read-out: USTIMA in vitro Growth Inhibition.

`COc1ccnc(C(=O)N[C@H]2COC(=O)[C@H](Cc3ccccc3)[C@@H](OC(=O)C(C)C)[C@H](C)OC2=O)c1OC(=O)CC(C)C` [Compound 606]: the inhibition at 25 ppm in assay [1] is less than 80%; in assay [2], less than 80%; in assay [3], greater than 80%; in assay [4], less than 80%; in assay [5], less than 80%; in assay [6], less than 80%.

Regarding `COc1ccnc(C(=O)NCCCCC(=O)Oc2cccnc2Br)c1O` [Compound 366], the inhibition at 25 ppm in assay [1] is greater than 80%; in assay [2], less than 80%; in assay [3], less than 80%; in assay [4], less than 80%; in assay [5], less than 80%; in assay [6], less than 80%.

Turning to `COc1ccnc(C(=O)N[C@H]2COC(=O)[C@H](Cc3ccccc3)[C@@H](OC(=O)C(C)C)[C@H](C)OC2=O)c1OC(=O)c1cccc(C)c1C` [Compound 632], the inhibition at 25 ppm in assay [1] is less than 80%; in assay [2], less than 80%; in assay [3], greater than 80%; in assay [4], less than 80%; in assay [5], less than 80%; in assay [6], less than 80%.

`COc1ccnc(C(=O)N[C@H]2COC(=O)[C@H](Cc3ccccc3)[C@@H](OC(=O)C(C)C)[C@H](C)OC2=O)c1OC(=O)c1cccc(C(F)(F)F)c1` [Compound 640]: the inhibition at 25 ppm in assay [1] is less than 80%; in assay [2], less than 80%; in assay [3], greater than 80%; in assay [4], less than 80%; in assay [5], less than 80%; in assay [6] it was less than 80%.

`COc1ccnc(C(=O)N[C@H]2COC(=O)[C@H](Cc3ccccc3)[C@@H](OC(=O)C(C)C)[C@H](C)OC2=O)c1OC(=O)c1ccc(OC(Cl)(Cl)Cl)cc1` [Compound 635]: the inhibition at 25 ppm in assay [1] is less than 80%; in assay [2], less than 80%; in assay [3], greater than 80%; in assay [4], less than 80%; in assay [5], less than 80%; in assay [6], less than 80%.

Consider `COc1ccnc(C(=O)N[C@H]2COC(=O)[C@H](Cc3ccccc3)[C@@H](OC(=O)C(C)C)[C@H](C)OC2=O)c1OC(=O)c1cc(Cl)cnc1Cl` [Compound 671], for which the inhibition at 25 ppm in assay [1] is less than 80%; in assay [2], less than 80%; in assay [3], greater than 80%; in assay [4], less than 80%; in assay [5] it was less than 80%; in assay [6], less than 80%.

Turning to `COc1ccnc(C(=O)N[C@H]2COC(=O)[C@H](Cc3ccccc3)[C@@H](OC(=O)C(C)C)[C@H](C)OC2=O)c1OC(=O)/C=C/c1ccccc1` [Compound 651], the inhibition at 25 ppm is less than 80% in assay [1]; less than 80% in assay [2]; greater than 80% in assay [3]; less than 80% in assay [4]; less than 80% in assay [5]; less than 80% in assay [6].

Consider `COc1ccnc(C(=O)NC(C)C(=O)OCCCCCc2ccccc2)c1O` (stereo not drawn) [Compound 370], for which the inhibition at 25 ppm in assay [1] is less than 80%; in assay [2], less than 80%; in assay [3] it was greater than 80%; in assay [4], less than 80%; in assay [5], less than 80%; in assay [6], less than 80%.

As for `COc1ccnc(C(=O)N[C@H]2COC(=O)[C@H](Cc3ccccc3)[C@@H](OC(=O)C(C)C)[C@H](C)OC2=O)c1OC(=O)c1ccccc1F` [Compound 636], the inhibition at 25 ppm was less than 80% in assay [1]; less than 80% in assay [2]; greater than 80% in assay [3]; less than 80% in assay [4]; less than 80% in assay [5]; less than 80% in assay [6].

On to `COc1ccnc(C(=O)NC(CC2CCCCC2)C(=O)OC2CCNC2)c1O` (stereo not drawn) [Compound 369], for which the inhibition at 25 ppm in assay [1] is less than 80%; in assay [2] it was less than 80%; in assay [3], less than 80%; in assay [4], greater than 80%; in assay [5] it was less than 80%; in assay [6], less than 80%.

In the case of `C=CCOC(=O)Oc1c(OC)ccnc1C(=O)N[C@H]1COC(=O)[C@H](Cc2ccccc2)[C@@H](OC(=O)C(C)C)[C@H](C)OC1=O` [Compound 681], the inhibition at 25 ppm in assay [1] is less than 80%; in assay [2] it was greater than 80%; in assay [3] it was greater than 80%; in assay [4] it was greater than 80%; in assay [5] it was less than 80%; in assay [6], less than 80%.

As for `COc1ccnc(C(=O)N[C@H]2COC(=O)[C@H](Cc3ccccc3)[C@@H](OC(=O)C(C)C)[C@H](C)OC2=O)c1OC(=O)C(Cl)c1ccccc1` (stereo partly drawn) [Compound 649], the inhibition at 25 ppm in assay [1] is less than 80%; in assay [2], greater than 80%; in assay [3] it was greater than 80%; in assay [4], less than 80%; in assay [5], less than 80%; in assay [6] it was less than 80%.

For the compound `COc1ccnc(C(=O)N[C@H]2COC(=O)[C@H](Cc3ccccc3)[C@@H](OC(=O)C(C)C)[C@H](C)OC2=O)c1OC(=O)c1ccccc1Br` [Compound 647], the inhibition at 25 ppm in assay [1] is less than 80%; in assay [2] it was less than 80%; in assay [3], greater than 80%; in assay [4], less than 80%; in assay [5], less than 80%; in assay [6] it was less than 80%.

As for `COc1ccnc(C(=O)N[C@H]2COC(=O)[C@H](Cc3ccccc3)[C@@H](OC(=O)C(C)C)[C@H](C)OC2=O)c1OC(=O)c1ccnc(Cl)c1` [Compound 672], the inhibition at 25 ppm in assay [1] was less than 80%; in assay [2], less than 80%; in assay [3] it was greater than 80%; in assay [4] it was less than 80%; in assay [5], less than 80%; in assay [6], less than 80%.

On to `COc1ccnc(C(=O)N[C@H]2COC(=O)[C@H](Cc3ccccc3)[C@@H](OC(=O)C(C)C)[C@H](C)OC2=O)c1OC(=O)c1c(F)c(F)c(F)c(F)c1F` [Compound 642], for which the inhibition at 25 ppm in assay [1] was less than 80%; in assay [2], less than 80%; in assay [3], greater than 80%; in assay [4], less than 80%; in assay [5] it was less than 80%; in assay [6], less than 80%.

As to `COc1ccnc(C(=O)NCCCCCCCCCCC(=O)Oc2cccc(NC(C)=O)c2)c1O` [Compound 363], the inhibition at 25 ppm is less than 80% in assay [1]; greater than 80% in assay [2]; less than 80% in assay [3]; less than 80% in assay [4]; less than 80% in assay [5]; less than 80% in assay [6].

With `COc1ccnc(C(=O)NCCCCCCCCCCC(=O)OCCSc2ccccc2)c1O` [Compound 362], the inhibition at 25 ppm in assay [1] is less than 80%; in assay [2] it was greater than 80%; in assay [3] it was less than 80%; in assay [4], less than 80%; in assay [5] it was less than 80%; in assay [6], less than 80%.
